pIC50: −log10 of the molar value. “And” between values parts separate entries of the source, which are not always exact repeats. Identical values can stand only once. One block for each molecule: values may come before it.
Tested on: 171881-019-R-J1-PDC complex spheroid viability
Assay: Anticancer human tumor 171881-019-R-J1-PDC patient-derived invasive breast carcinoma cell line growth inhibition
Conditions: for viability, T/C: stronger effect = lower value
Text: Multicellular complex tumor spheroid response to LSD1 Inhibitor Iadademstat in combination with a variety of drugs and investigational agents in selected tumor cell lines
The current study was undertaken to assess response to LSD1 inhibitors in combination with standard-of-care drugs and investigational agents in solid tumor complex spheroid models as well as in the K-562 leukemia. Complex spheroids include a stromal component modeled by human endothelial cells (HUVEC) and fibroblasts modeled by human mesenchymal stem cells (MSCs). The concentration ranges selected for each drug and investigational agent were based upon clinically achievable concentrations if the clinical Cmax of the agent was known.
Compounds. The drugs and investigational agents used in this study are listed on Table 1. All of the agents used, including staurosporine (NSC755774) and gemcitabine (NSC613327), were obtained from the Developmental Therapeutics Program, NCI. FDA-approved anticancer drugs are available from the NCI at http://dtp.nci.nih.gov/branches/dscb/oncology_drugset_explanation.html. Drugs and investigational agents were >95% pure by proton nuclear magnetic resonance (NMR) and liquid chromatography/mass spectrometry (LC/MS). Stock solutions were prepared at 400x in DMSO, stored at -70 degrees C, and diluted in fresh medium prior to their use. The final concentration of DMSO in cell culture wells never exceeded 0.25% (v/v). The FDA-approved anticancer drug set is available from the Developmental Therapeutics Program at https://dtp.cancer.gov/organization/dscb/obtaining/available_plates.htm. All drugs and investigational agents were tested over a range starting from a high concentration at or near the clinical Cmax and decreasing in half-log increments. If the clinical Cmax for an agent had not been determined, the highest concentration tested was 10 microM.
Cell Lines. The patient-derived cancer cell (PDC) lines: 292921-168-R-J2-PDC, K24384-001-R-PDC, and 521955-158-R2-J5-PDC pancreatic carcinomas, 556581-035-R-J1 ovarian carcinoma, 324938-238-R-J1-PDC, 855422-203-R-J1-PDC and 883617-216-R-J1-PDC urothelial bladder carcinomas, 743489-274-T-PDC renal cell carcinoma, 138582-R-J1 Merkel cell tumor, K60290-347-R-J1 and K57222-313-R-J1-PDC glioblastomas, 653999-131-R-J2-PDC, LG0703-F948-PDC, and 349418-098-R-PDC non-small cell lung carcinomas, 885512-296-R-J2-PDC, 171881-019-R-J1-PDC breast carcinomas and 186277-243-T-J2-PDC and 233499-124-R-J2-PDC colon carcinomas were obtained from the NCI Patient-Derived Models Repository (PDMR, https://pdmr.cancer.gov). The established cell lines NCI/ADR-RES (RRID:CVCL_14520 and OVCAR-5 (RRID:CVCL_1628) ovarian carcinomas, 786-O (RRID:CVCL_1051) and A498 (RRID:CVCL_A498) renal cell carcinoma, NCI-H211 (ATCC, cat. CRL-5824; RRID:CVCL_1529), NCI-H196 (ATCC, cat. CRL-5823, RRID:CVCL_1509), SW 1271 (ATCC, cat. CRL-2177, RRID:CVCL_1716) and NCI-H1876 (ATCC, cat. CRL-5902, RRID:CVCL_1503) small cell lung carcinomas, MDA-MB-231 (RRID:CVCL_0062) and MDA-MB-468 (RRID:CVCL_0419)breast carcinomas (10-12). Pooled donor human umbilical vein endothelial cells (HUVEC, Lonza, cat. CC-2519) and human mesenchymal stem cells (hMSC, Lonza, cat. PT-2501) were purchased from Lonza (Walkersville, MD).
Cell Culture. All cells were maintained in an incubator at 37 degrees C and 5% CO2 with 95% humidity. The PDC lines were cultured according to standard operating procedures established by the NCI PDMR (https://pdmr.cancer.gov). Briefly all PDCs were thawed and cultured in Matrigel-coated flasks prepared with a working solution of 1X Ham's F-12 nutrient mix, without supplementation (Invitrogen, Waltham, MA, cat. 11765054), 100 U/mL penicillin-streptomycin (Invitrogen, cat. 15140122), and 2.5% Matrigel (Corning Inc., Corning, NY, cat. 354248) for the first three passages. […]
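Further: spheroids exposed to agents for 7 days after 3 days growth.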

SMILES: O=C(c1cc(Cc2n[nH]c(=O)c3ccccc23)ccc1F)N1CCN(C(=O)C2CC2)CC1 + NC1CCC(NC2CC2c2ccccc2)CC1
pIC50 (curve of first compound, second compound 0.1 µM): < 5.00
pIC50 (curve of first compound, second compound 0.316 µM): < 5.00
pIC50 (curve of first compound, second compound 1 µM): < 5.00
pIC50 (curve of first compound, second compound 3.16 µM): < 5.00
pIC50 (curve of first compound, second compound 10 µM): < 5.00
viability, T/C (second compound 0.1 µM, first compound 0.0316 µM): 85.3%
viability, T/C (second compound 0.1 µM, first compound 0.1 µM): 86.6%
viability, T/C (second compound 0.1 µM, first compound 0.316 µM): 82.4%
viability, T/C (second compound 0.1 µM, first compound 1 µM): 86.6%
viability, T/C (second compound 0.1 µM, first compound 3.16 µM): 84.7%
viability, T/C (second compound 0.1 µM, first compound 10 µM): 85.1%
viability, T/C (second compound 0.316 µM, first compound 0.0316 µM): 91.7%
viability, T/C (second compound 0.316 µM, first compound 0.1 µM): 82.7%
viability, T/C (second compound 0.316 µM, first compound 0.316 µM): 87.7%
viability, T/C (second compound 0.316 µM, first compound 1 µM): 79.6%
viability, T/C (second compound 0.316 µM, first compound 3.16 µM): 86.2%
viability, T/C (second compound 0.316 µM, first compound 10 µM): 82%
viability, T/C (second compound 1 µM, first compound 0.0316 µM): 90.6%
viability, T/C (second compound 1 µM, first compound 0.1 µM): 95.9%
viability, T/C (second compound 1 µM, first compound 0.316 µM): 88.9%
viability, T/C (second compound 1 µM, first compound 1 µM): 79.9%
viability, T/C (second compound 1 µM, first compound 3.16 µM): 85.8%
viability, T/C (second compound 1 µM, first compound 10 µM): 80%
viability, T/C (second compound 3.16 µM, first compound 0.0316 µM): 99.8%
viability, T/C (second compound 3.16 µM, first compound 0.1 µM): 87.8%
viability, T/C (second compound 3.16 µM, first compound 0.316 µM): 86.3%
viability, T/C (second compound 3.16 µM, first compound 1 µM): 79.3%
viability, T/C (second compound 3.16 µM, first compound 3.16 µM): 88.4%
viability, T/C (second compound 3.16 µM, first compound 10 µM): 80.9%
viability, T/C (second compound 10 µM, first compound 0.0316 µM): 83.8%
viability, T/C (second compound 10 µM, first compound 0.1 µM): 82.9%
viability, T/C (second compound 10 µM, first compound 0.316 µM): 78.3%
viability, T/C (second compound 10 µM, first compound 1 µM): 74.2%
viability, T/C (second compound 10 µM, first compound 3.16 µM): 81.9%
viability, T/C (second compound 10 µM, first compound 10 µM): 80.5%

pIC50 (curve of compound): < 5.00 and 5.32
SMILES: CC(C)c1c(-c2ccccc2)nc2c(C#N)c[nH]n2c1=O
viability, T/C (compound 0.0316 µM): 95.8% and 97.3%
viability, T/C (compound 0.1 µM): 92.4% and 99.1%
viability, T/C (compound 0.316 µM): 87.7% and 97.2%
viability, T/C (compound 1 µM): 89.9% and 88%
viability, T/C (compound 3.16 µM): 94% and 67.1%
viability, T/C (compound 10 µM): 95.2% and 19.2%

— PubChem BioAssay AID1918932 (Molecular Pharmacology Branch, DTP, NCI, 2023)
